Laboratory results reported in patent publication US12582639B2, “Preventive, relief or therapeutic use of 2,3,5-substituted thiophene compound against gastrointestinal stromal tumor” (PHAROS IBIO CO., LTD, priority 2020, dated 2026).

Assays:
[1] = test system: GIST-T1 cell line; assay: Growth inhibition of gastrointestinal stromal tumor cell line GIST-T1 (Celltiter glo); assay type: cell-based; conditions: Homo sapiens, GISTT1; for GI50: GIST-T1, 72 hours
Experimental: Specifically, 100 μl of the GIST-T1 cell line was added to each well of a 96-well plate at a concentration of 5,000 cells/100 μl. After 24 hours of stabilization, 100 μl of the GIST-T1 cell line was treated with 0.5 μl of each of control compounds and PHI-101 (⅓ serial dilution, 10 points) to a final concentration of up to 50 μM, and cultured at 37° C. under 5% CO2 for 72 hours. As the control compounds, imatinib, dasatinib, sunitinib and ponatinib, which are c-kit inhibitors, were used. After culture, the cells were counted using a Celltiter glo assay kit (Promega), and the 50% growth inhibition values (GI50, μM) of the control compounds and PHI-101 were measured.

[2] = test system: c-kit D816V Ba/F3 cell line; assay: Growth inhibition of c-kit D816V mutant Ba/F3 cell line (Celltiter glo); assay type: cell-based; conditions: for GI50: Mus musculus, BaF3, cKIT D816V Ba/F3, 72 hours
Experimental: Specifically, 100 μl of a Ba/F3 cell line with a c-kit D816V mutation (FIG. 1) was added to each well of a 96-well plate at a concentration of 10,000 cells/100 μl. After 4 hours, 100 μl of the Ba/F3 cell line was treated with 0.5 μl of each of control compounds and PHI-101 (10-point 1:3 serial dilutions) to a final concentration of up to 50 μM, and cultured at 37° C. under 5% CO2 for 72 hours. As the control compounds, imatinib and sunitinib which are c-kit inhibitors were used. After culture, the cells were counted using a Celltiter glo assay kit (Promega), and the 50% growth inhibition values (GI50, μM) of the control compounds and PHI-101 were measured.

[3] = test system: Parental Ba/F3 cell line; assay: Growth inhibition of parental Ba/F3 cell line (Celltiter glo); assay type: cell-based; conditions: Mus musculus, BaF3; Parental Ba/F3, 72 hours
[4] = test system: c-kit phosphorylation and downstream signaling (p-STAT3, p-ERK1/2) in c-kit D816V mutant Ba/F3 cell line; assay: Inhibition of c-kit phosphorylation and downstream signaling in c-kit D816V Ba/F3 cells (Western blot); assay type: cell-based; conditions: 0.1, 1 and 10 μM, 2 hours; controls sunitinib and dasatinib
Experimental: The inhibitory activities of the control compound and PHI-101 against c-kit phosphorylation and downstream signaling (p-STAT3, p-ERK1/2) in the c-kit D816V mutant Ba/F3 cell line were measured, and as control compounds, sunitinib and dasatinib were used.
(§1) Specifically, the c-kit D816V mutant Ba/F3 cell line was dispensed at a density of 1×10^6 cells/ml, treated with each of the control compounds and PHI-101 at concentrations of 0.1, 1 and 10 μM, and then cultured for 2 hours. Lysates of the cells were obtained using lysis buffer (50 mM Tris-HCl pH7.5, 1% NP40, 1 mM EDTA, 150 mM NaCl, 5 mM, Na3VO4 and 2.5 mM NaF, and a protease inhibitor cocktail). Equal amounts of the cell lysates were electrophoresed using 8% SDS-PAGE gel at 100 V for 1 hour and 30 minutes, and the separated protein was electrically transferred to nitrocellulose membranes. The membranes were blocked with 5% skim milk at room temperature for 30 minutes, and allowed to react with primary antibodies (diluted 1:5,000), including p-c-kit tyrosine 719 (Y719), p-STAT3 tyrosine 705 (Y705) and p-ERK1/2 threonine 202/tyrosine 204 (T202/Y204) at 4° C. for 16 to 20 hours. […] Next, the membranes were washed three times with TBST for 5 minutes each time and treated with a chemiluminescent substrate reagent, and the expression level of the protein was measured by detecting luminescence with an X-ray film in the dark.

[5] = test system: c-kit D816V mutant Ba/F3 cell line; assay: Apoptotic effect, Annexin V-PI FACS analysis; assay type: cell-based; conditions: 24 hours
Experimental: Specifically, the c-kit D816V mutant Ba/F3 cell line was adjusted to a concentration of 1×10^6 cells/ml and treated with each of PHI-101 at concentrations of 0.1, 1 and 10 μM and the control compound sunitinib at concentrations of 1 and 10 μM for 24 hours. Thereafter, the medium was removed and the cells were washed once with 1 ml PBS. The PBS was removed by centrifugation at 1,000 rpm for 5 minutes. The cells were dissolved in 100 μl of PBS containing Ca^2+ and Mg^2+ and allowed to react with 5 μl of Annexin V for 20 minutes. After completion of the reaction, 400 μl of PBS containing Ca^2+ and Mg^2+ was added, and 5 μl of propidium iodide (PI) was added, and then the degree of apoptotic cell death was analyzed by FACS (fluorescence activated cell sorter) assay using a flow cytometer (FACS-C6, BD).

[6] = test system: c-kit D816V mutant Ba/F3 cell line; assay: Cell cycle FACS assay; assay type: cell-based; conditions: 1 μM, 24 hours
Experimental: The c-kit D816V mutant Ba/F3 cell line was treated with 1 μM of PHI-101, and then the SubG1/GO-1 population was analyzed by cell cycle FACS assay.
Specifically, the c-kit D816V mutant Ba/F3 cell line was adjusted to a concentration of 1×10^6 cells/ml and treated with each of PHI-101 and the control compound sunitinib at a concentration of 1 μM for 24 hours. Thereafter, the medium was removed, and the c-kit D816V mutant Ba/F3 cell line was fixed in 70% ethanol at 4° C. for 24 hours, and then incubated in a PBS buffer solution containing 40 μg/ml of propidium iodide (PI) and 100 μg/ml of RNase for 30 minutes to completely stain the total DNA. Cell cycle analysis of the stained cells was performed using a flow cytometer (FACS-C6, BD). The proportion of cells in G0/G1 phase, S phase and G2/M phase was measured, and based on the measurement results, the SubG1/GO-1 population was determined.

[7] = test system: c-kit phosphorylation and downstream signaling (p-AKT, p-ERK1/2, p-S6) in GIST-T1 cell line; assay: Inhibition of c-kit phosphorylation and downstream signaling in GIST-T1 cells (Western blot); assay type: cell-based, human; conditions: 0.01, 0.1 and 1 μM
[8] = test system: GIST-T1 cell line; assay: Apoptotic effect, cleaved PARP Western blot in GIST-T1; assay type: cell-based, human; conditions: 0.01, 0.1 and 1 μM, 24 hours
Experimental: as §1, with “membranes.” for “membranes. The membranes were blocked with 5% skim milk at room temperature for 30 minutes, and allowed to react with primary antibodies (diluted 1:5,000), including p-c-kit tyrosine 719 (Y719), p-STAT3 tyrosine 705 (Y705) and p-ERK1/2 threonine 202/tyrosine 204 (T202/Y204) at 4° C. for 16 to 20 hours.”
A gastrointestinal stromal tumor cell line was treated with PHI-101, and the level of cleaved PARP, an apoptosis marker, was analyzed. […]
Specifically, the apoptotic effect of PHI-101 against the GIST-T1 cell line was analyzed in the same manner as in Example 1-2, except that the GIST-T1 cell line was treated with each of the control compounds at a concentration of 1 μM and PHI-101 at concentrations of 0.01, 0.1 and 1 μM for 24 hours, and that cleaved PARP diluted at 1:3,000 was used as a primary antibody.

[9] = test system: c-kit D816V Ba/F3 cell line xenograft mouse model; assay: Survival time of c-kit D816V Ba/F3 cell line xenograft mouse model; assay type: in vivo; conditions: oral, daily
Experimental: As mice, 6-8-week-old NOD SCID female mice (18 to 22 g) (GemPharmatech Co., Ltd.) were prepared. Mice were acclimatized for 7 days before use in the experiment, and mice with abnormal health were excluded from the experiment. Mice were bred in a cage (300×180×150 mm) at a 22±3° C. and a relative humidity of 40% to 70% with a 12-hr light/12-hr dark cycle. Mice were allowed access to sterilized dry granular food (Beijing Keaoxieli Feed Co., Ltd., Beijing, China) and water ad libitum for the entire experimental period except for the period specified in the protocol.
50 ml of c-kit D816V mutant Ba/F3 cells suspension cultured in a 75 T flask were placed in a conical tube and centrifuged at 800 rpm for 2 minutes, centrifuged with DPBS (Dulbecco's Phosphate-Buffered Saline, Welgene) at 800 rpm for 2 minutes, washed, and then suspended in RPMI1640 (Welgene) without antibiotics and fetal bovine serum (FBS). Thereafter, the cells were stained with trypan blue and counted with a hemocytometer. […]
Specifically, while the presence or absence of abnormalities in the mouse model of Example 3-1 was monitored daily by checking the skin condition, bleeding and stool status, whether the body weight changed was checked by measuring the mouse weight at intervals of 3 days after the start of oral administration of each drug. […]

Compound | GI50 [1] [nM] | GI50 [2] [nM] | GI50 [3] [nM] | inhibitory activity against the c-kit D816V Ba/F3 mutant cell line compared with control compounds ([2]; controls imatinib and sunitinib) | selectivity for c-kit D816V Ba/F3 mutant cell line versus parental Ba/F3 cell line ([2]; from GI50 values of Table 1) | inhibitory activity against p-c-kit (Y719) phosphorylation [4] | induction of apoptosis ([5]; 0.1 μM) | apoptosis, concentration dependence ([5]; 0.1, 1 and 10 μM) | SubG1/GO-1 population [6] | IC50 ([1]; GIST-T1 proliferation, read-out: IC50 value in GIST-T1 cells) [nM] | c-kit phosphorylation and downstream signaling [7] | level of cleaved PARP (apoptosis marker) [8] | prolongation of survival time compared to vehicle-administered group ([9]; 7 mg/kg) [days] | survival time compared to vehicle-administered group ([9]; 80 mg/kg)
Cc1nc(Nc2ncc(C(=O)Nc3c(C)cccc3Cl)s2)cc(N2CCN(CCO)CC2)n1 [Dasatinib, dasatinib] | 73 |  |  |  |  |  |  |  |  |  |  |  |  | 
Cc1ccc(NC(=O)c2ccc(CN3CCN(C)CC3)cc2)cc1Nc1nccc(-c2cccnc2)n1 [Imatinib, imatinib] | 64 | 11500 | 12700 |  |  |  |  |  |  |  |  |  |  | 
NC(=O)Nc1cc(C#Cc2cccc(F)c2)sc1C(=O)N[C@H]1CCCNC1 [PHI-101, (S)-5-((3-fluorophenyl)ethynyl)-N-(piperidin-3-yl)-3-ureidothiophene-2-carboxamide] | 36 | 912 | 5010 | higher inhibitory activity against the c-kit D816V Ba/F3 mutant cell line than the control compounds | higher selectivity for the c-kit D816V Ba/F3 mutant cell line than for the parental Ba/F3 cell line | higher inhibitory activity against p-c-kit (Y719) phosphorylation than the control compounds | strongly induced apoptosis | apoptosis increased in a concentration-dependent manner | increased | 36 | decreased c-kit phosphorylation and downstream signaling in a concentration-dependent manner | increased in a manner dependent on the concentration of PHI-101 | 3 | doubled
CCN(CC)CCNC(=O)c1c(C)[nH]c(/C=C2\C(=O)Nc3ccc(F)cc32)c1C [Sunitinib, sunitinib] | 26 | 2650 | 13300 |  |  |  |  |  |  |  |  |  |  | 
